The record followed here is PubChem BioAssay (NCI).

Molecules are shown by their SMILES.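 Following 48 hours of exposure in 96-well plates, responses at five concentrations were used to interpolate endpoints linearly. GI50 marks 50% less growth. TGI: concentration producing complete growth inhibition.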 *1 amine or outer side, *2 acyl side, *3 side chain or, on linkers, in order; H or OH if unused. Where a SMILES comes first, the peptide text is derived from it. Bridges are numbered along the chain shown (N, C = ends). Roman numbers before positions name the chains, in order. [ ]: non-standard residue; d: D form. ξ: configuration not given here. X54 = N=C(N)NCCC[C@@H](NC(=N)CCCCCCC(=N)N[C@H](CCCNC(=N)N)C(=O)[*:2])C(=O)[*:1]; dIgl = N[C@@H](C(=O)O)C1Cc2ccccc2C1; Hyp = O=C(O)[C@@H]1C[C@@H](O)CN1; ξIgl = NC(C(=O)O)C1Cc2ccccc2C1; ξOic = O=C(O)C1CC2CCCCC2N1; ξR = N=C(N)NCCCC(N)C(=O)O; ξP = O=C(O)C1CCCN1; ξS = NC(CO)C(=O)O

Assay in all cases: NCI tumour cell line growth inhibition, 48 h
The test system of experiment [1] is OVCAR-8 ovarian.
For experiment [2], the system named is CAKI-1 renal.
Experiment [3] deals with UACC-257 melanoma.
In experiment [4] the test system is LOX IMVI melanoma.
In experiment [5] the test system is SF-268 CNS.
Experiment [6] concerns OVCAR-5 ovarian.
For experiment [7], the system named is MALME-3M melanoma.
Experiment [8] concerns SNB-75 CNS.
Experiment [9] has as its system SNB-19 CNS.
The subject of experiment [10] is PC-3 prostate.

For the compound `CC(C)=CC1C(C(=O)Oc2ccccc2C(C)C)C1(C)C` (stereo not given), the TGI in experiment [1] is > 100 µM; in experiment [2] it was > 100 µM; in experiment [3], 44.2 µM; in experiment [4], 33.4 µM; in experiment [5] it was > 100 µM; in [6], 48.8 µM. The TGI is 34.1 µM in experiment [7], 62 µM in [8] and > 100 µM in [9].

With `c1coc(-c2nccc3c2[nH]c2ccccc23)c1`, the TGI in experiment [1], in [10], in experiment [2], in experiment [3], in [4] and in experiment [5] was > 100 µM throughout. The TGI in experiment [6], in experiment [7] and in [9] was > 100 µM throughout.

With `CCOC(=O)/C=C/C(=O)O/C=C/[N+](=O)[O-]`, the TGI is > 100 µM in experiment [1]; 78.1 µM in [2]; > 100 µM in experiment [3]; > 100 µM in experiment [4]; > 100 µM in experiment [5]; > 100 µM in [6]. Besides, in [8], the TGI was > 100 µM.

In the case of `COc1cc(C2S/C(=C/c3ccccc3)C(=O)N2Cc2ccccc2)cc(OC)c1OC` (stereo not given), the TGI in [1], in experiment [10], in [2], in experiment [3], in experiment [4] and in experiment [5] was > 100 µM in each case. Besides, the TGI in [6] was > 100 µM; in [8], 73.3 µM; in experiment [9] it was > 100 µM.

`CN1C(=O)CC2(C)c3cc(O)cc(Br)c3N(C)C12` (stereo not given): the TGI in experiment [1], in experiment [3], in experiment [4], in [5], in [6] and in experiment [7] was > 100 µM throughout. Moreover, the TGI in experiment [8] and in experiment [9] was > 100 µM throughout.

As for `CCc1cc(C)cc2[n+]1CC=C2`, the TGI in [1] was > 100 µM; in experiment [2], > 100 µM; in [3], 39.7 µM; in experiment [4] it was > 100 µM; in [5], > 100 µM; in experiment [6] it was 56.6 µM. Besides, the TGI is 67.5 µM in experiment [7], 70.6 µM in [8] and > 100 µM in [9].

For the compound `CC(=O)c1ccccc1NC(=O)C(=O)C(C(=O)c1ccc2ccccc2c1)C1OC(=O)c2ccccc21` (stereo not given), the TGI in experiment [1] was 94.8 µM; in experiment [2], 48.1 µM; in experiment [3], 61.8 µM; in [4], 26.4 µM; in experiment [5] it was 51 µM; in experiment [6], 52.9 µM. The figures for the TGI in [7], in experiment [8] and in [9] were 23.3 µM, 25.6 µM and 35.3 µM, respectively.

Turning to `CSc1ncc2c(n1)-c1ccccc1OC2N1CCOCC1` (stereo not given), the TGI in experiment [1], in experiment [10], in experiment [2], in [3], in experiment [4] and in experiment [5] was > 100 µM throughout. Further, the TGI in experiment [6], in experiment [8] and in experiment [9] was > 100 µM throughout.

On to `CC[C@@]1(O)C[C@H](OC2CC(N(C)C)C(O)C(C)O2)c2c(cc3c(c2O)C(=O)c2c(O)ccc(O)c2C3=O)[C@H]1C(=O)OC` (stereo not given in full), for which the TGI in [1] was found to be 0.643 µM; in experiment [2], 0.25 µM; in experiment [3], 0.317 µM; in experiment [4] it was 0.772 µM; in experiment [5], 0.68 µM; in experiment [6] it was 0.836 µM. Moreover, the TGI was determined as 0.304 µM in [7], 0.354 µM in experiment [8] and 2.91 µM in experiment [9].

`CCC(C)(C)c1cc(O)c(C(C)(C)CC)cc1O`: the GI50 in experiment [1] was 4.48 µM; in [10], 3.43 µM; in experiment [2], 2.44 µM; in experiment [3], 3.44 µM; in experiment [4], 2.1 µM; in experiment [5], 3.92 µM. Besides, the GI50 was 4.97 µM in [6], 3.14 µM in experiment [8] and 2.69 µM in experiment [9]. Moreover, the TGI in experiment [1] was found to be 23.5 µM; in [10], 13.2 µM; in [2] it was 7.74 µM; in experiment [3], 12.1 µM; in experiment [4], 4.62 µM; in experiment [5], 15.6 µM. For the same compound, the TGI was 17.6 µM in experiment [6], 16.5 µM in [8] and 12.6 µM in experiment [9].

As for `Cc1ccccc1NC(=O)Cc1csc(N/N=C2\NC(=O)/C(=C/c3cccc([N+](=O)[O-])c3)S2)n1`, the TGI in [1] is > 100 µM; in experiment [10], 33.5 µM; in [2], 35.7 µM; in experiment [3], 41.9 µM; in experiment [4], > 100 µM; in experiment [6] it was 45.8 µM. Moreover, the TGI in [8] and in experiment [9] was 34 µM throughout.

Take `Cn1c(-c2ccc[se]2)ccc1-c1ccc(C=O)[se]1`: the TGI in experiment [1] is 42.2 µM; in experiment [10] it was > 100 µM; in experiment [2], 0.738 µM; in [3], 3.5 µM; in experiment [4] it was 30.1 µM; in [5], 59.1 µM. Moreover, the figures for the TGI in experiment [8] and in [9] were > 65.1 µM and > 100 µM, respectively.

On to `N=C(N)NCCCC(NC(=O)C1CC2CCCCC2N1C(=O)[C@H](NC(=O)C(CO)NC(=O)C(NC(=O)CNC(=O)[C@@H]1C[C@@H](O)CN1C(=O)C1CCCN1C(=O)C(CCCNC(=N)N)NC(=O)[C@@H](CCCNC(=N)N)NC(=N)CCCCCCC(=N)N[C@H](CCCNC(=N)N)C(=O)NC(CCCNC(=N)N)C(=O)N1CCCC1C(=O)N1C[C@H](O)C[C@H]1C(=O)NCC(=O)NC(C(=O)NC(CO)C(=O)N[C@@H](C(=O)N1C(C(=O)NC(CCCNC(=N)N)C(=O)O)CC2CCCCC21)C1Cc2ccccc2C1)C1Cc2ccccc2C1)C1Cc2ccccc2C1)C1Cc2ccccc2C1)C(=O)O` (stereo not given in full) (I: [ξR][ξP][Hyp]G[ξIgl][ξS][dIgl][ξOic][ξR]-OH / II: [ξR][ξP][Hyp]G[ξIgl][ξS][dIgl][ξOic][ξR]-OH; linker I:N-II:N via X54), for which the TGI in [10] was 3.59 µM; in [2] it was 3.71 µM; in experiment [3], > 10 µM; in experiment [4], 4.94 µM; in experiment [5] it was 3.82 µM; in experiment [6], > 10 µM. Besides, the TGI was found to be 5.1 µM in [7] and 5.49 µM in [9].
